Publication PMC8330742, “New benzothieno[2,3-c]pyridines as non-steroidal CYP17 inhibitors: design, synthesis, anticancer screening, apoptosis induction, and in silico ADME profile studies” (Journal of Enzyme Inhibition and Medicinal Chemistry, 2021)

What was measured:
CCRF-CEM = test: NCI-60 SRB screen; format: cell-based; conditions: Homo sapiens, single dose 10^−5 M, read-out: Growth inhibition (%)
HL-60(TB) = test: NCI-60 SRB screen; format: cell-based, human; conditions: Homo sapiens; HL-60 (TB); single dose 10^−5 M; read-out: Growth inhibition (%)
K-562 = test: NCI-60 SRB screen; format: cell-based, human; conditions: Homo sapiens, K562; K-562; single dose 10^−5 M; read-out: Growth inhibition (%)
MOLT-4 = test: NCI-60 SRB screen; format: cell-based; conditions: Homo sapiens; MOLT-4; single dose 10^−5 M; read-out: Growth inhibition (%)
SR = test: NCI-60 SRB screen; format: cell-based; conditions: Homo sapiens, single dose 10^−5 M, read-out: Growth inhibition (%)
A549/ATCC = test: NCI-60 SRB screen; format: cell-based, human; conditions: Homo sapiens, single dose 10^−5 M, read-out: Growth inhibition (%)
EKVX = test: NCI-60 SRB screen; format: cell-based, human; conditions: Homo sapiens, single dose 10^−5 M, read-out: Growth inhibition (%)
HOP-62 = test: NCI-60 SRB screen; format: cell-based, human; conditions: Homo sapiens; HOP-62; single dose 10^−5 M; read-out: Growth inhibition (%)
HOP-92 = test: NCI-60 SRB screen; format: cell-based, human; conditions: Homo sapiens; HOP-92; single dose 10^−5 M; read-out: Growth inhibition (%)
NCI-H226 = test: NCI-60 SRB screen; format: cell-based, human; conditions: Homo sapiens; NCI-H226; single dose 10^−5 M; read-out: Growth inhibition (%)
NCI-H23 = test: NCI-60 SRB screen; format: cell-based, human; conditions: Homo sapiens; NCI-H23; single dose 10^−5 M; read-out: Growth inhibition (%)
NCI-H322M = test: NCI-60 SRB screen; format: cell-based, human; conditions: Homo sapiens, single dose 10^−5 M, read-out: Growth inhibition (%)
NCI-H460 = test: NCI-60 SRB screen; format: cell-based, human; conditions: Homo sapiens; NCI-H460; single dose 10^−5 M; read-out: Growth inhibition (%)
NCI-H522 = test: NCI-60 SRB screen; format: cell-based, human; conditions: Homo sapiens; NCI-H522; single dose 10^−5 M; read-out: Growth inhibition (%)
COLO 205 = test: NCI-60 SRB screen; format: cell-based, human; conditions: Homo sapiens; COLO 205; single dose 10^−5 M; read-out: Growth inhibition (%)
HCC-2998 = test: NCI-60 SRB screen; format: cell-based, human; conditions: Homo sapiens; HCC-2998; single dose 10^−5 M; read-out: Growth inhibition (%)
HCT-116 = test: NCI-60 SRB screen; format: cell-based, human; conditions: Homo sapiens; HCT-116; single dose 10^−5 M; read-out: Growth inhibition (%)
HCT-15 = test: NCI-60 SRB screen; format: cell-based, human; conditions: Homo sapiens; HCT-15; single dose 10^−5 M; read-out: Growth inhibition (%)
HT-29 = test: NCI-60 SRB screen; format: cell-based; conditions: Homo sapiens; HT-29; single dose 10^−5 M; read-out: Growth inhibition (%)
KM12 = test: NCI-60 SRB screen; format: cell-based, human; conditions: Homo sapiens; KM12; single dose 10^−5 M; read-out: Growth inhibition (%)
SW-620 = test: NCI-60 SRB screen; format: cell-based; conditions: Homo sapiens; SW-620; single dose 10^−5 M; read-out: Growth inhibition (%)
SF-268 = test: NCI-60 SRB screen; format: cell-based, human; conditions: Homo sapiens; SF-268; single dose 10^−5 M; read-out: Growth inhibition (%)
SF-295 = test: NCI-60 SRB screen; format: cell-based, human; conditions: Homo sapiens; SF-295; single dose 10^−5 M; read-out: Growth inhibition (%)
LOX IMVI = test: NCI-60 SRB screen; format: cell-based, human; conditions: Homo sapiens, single dose 10^−5 M, read-out: Growth inhibition (%)
MALME-3M = test: NCI-60 SRB screen; format: cell-based, human; conditions: Homo sapiens, single dose 10^−5 M, read-out: Growth inhibition (%)
M14 = test: NCI-60 SRB screen; format: cell-based, human; conditions: Homo sapiens; M14; single dose 10^−5 M; read-out: Growth inhibition (%)
MDA-MB-435 = test: NCI-60 SRB screen; format: cell-based; conditions: Homo sapiens, MDA-MB-435, read-out: Growth inhibition (%)
SK-MEL-2 = test: NCI-60 SRB screen; format: cell-based, human; conditions: Homo sapiens; SK-MEL-2; single dose 10^−5 M; read-out: Growth inhibition (%)
SK-MEL-28 = test: NCI-60 SRB screen; format: cell-based; conditions: Homo sapiens; SK-MEL-28; single dose 10^−5 M; read-out: Growth inhibition (%)
SK-MEL-5 = test: NCI-60 SRB screen; format: cell-based, human; conditions: Homo sapiens; SK-MEL-5; single dose 10^−5 M; read-out: Growth inhibition (%)
UACC-62 = test: NCI-60 SRB screen; format: cell-based, human; conditions: Homo sapiens; UACC-62; single dose 10^−5 M; read-out: Growth inhibition (%)
IGROV1 = test: NCI-60 SRB screen; format: cell-based, human; conditions: Homo sapiens, IGROV-1; IGROV1; single dose 10^−5 M; read-out: Growth inhibition (%)
OVCAR-3 = test: NCI-60 SRB screen; format: cell-based, human; conditions: Homo sapiens; OVCAR-3; single dose 10^−5 M; read-out: Growth inhibition (%)
OVCAR-4 = test: NCI-60 SRB screen; format: cell-based, human; conditions: Homo sapiens; OVCAR-4; single dose 10^−5 M; read-out: Growth inhibition (%)
OVCAR-8 = test: NCI-60 SRB screen; format: cell-based, human; conditions: Homo sapiens; OVCAR-8; single dose 10^−5 M; read-out: Growth inhibition (%)
NCI/ADR-RES = test: NCI-60 SRB screen; format: cell-based, human; conditions: Homo sapiens, single dose 10^−5 M, read-out: Growth inhibition (%)
SK-OV-3 = test: NCI-60 SRB screen; format: cell-based, human; conditions: Homo sapiens; SK-OV-3; single dose 10^−5 M; read-out: Growth inhibition (%)
ACHN = test: NCI-60 SRB screen; format: cell-based; conditions: Homo sapiens, single dose 10^−5 M, read-out: Growth inhibition (%)
CAKI-1 = test: NCI-60 SRB screen; format: cell-based, human; conditions: Homo sapiens; CAKI-1; single dose 10^−5 M; read-out: Growth inhibition (%)
RXF 393 = test: NCI-60 SRB screen; format: cell-based, human; conditions: Homo sapiens; RXF 393; single dose 10^−5 M; read-out: Growth inhibition (%)
SN12C = test: NCI-60 SRB screen; format: cell-based, human; conditions: Homo sapiens, SN12C; SN 12 C; single dose 10^−5 M; read-out: Growth inhibition (%)
TK-10 = test: NCI-60 SRB screen; format: cell-based, human; conditions: Homo sapiens; TK-10; single dose 10^−5 M; read-out: Growth inhibition (%)
UO-31 = test: NCI-60 SRB screen; format: cell-based, human; conditions: Homo sapiens; UO-31; single dose 10^−5 M; read-out: Growth inhibition (%)
[1] = tested on: panel of 60 cancer cell lines; test: NCI-60 SRB screen, mean or range over the panel; format: cell-based, human; conditions: Homo sapiens; mean over the cell lines; single dose 10^−5 M; read-out: Mean growth inhibition (%)

COc1ccc(C2NC(=O)C(C#N)c3c2sc2c(F)cccc32)c(OC)c1 (stereo not shown) [Compound 5a, 1-(2,4-Dimethoxyphenyl)-4-cyano-8-fluoro-1,2-dihydro[1]benzothieno [2,3-c]pyridin-3(4H)-one]
inhibition at 10 µM (CCRF-CEM): 28.1%
inhibition at 10 µM (HL-60(TB)): 43%
inhibition at 10 µM (K-562): 76.1%
inhibition at 10 µM (MOLT-4): 28.6%
inhibition at 10 µM (SR): 86.1%
inhibition at 10 µM (A549/ATCC): 41.5%
inhibition at 10 µM (EKVX): 20.7%
inhibition at 10 µM (HOP-62): 42.6%
inhibition at 10 µM (HOP-92): 57.8%
inhibition at 10 µM (NCI-H226): 37.8%
inhibition at 10 µM (NCI-H23): 35.2%
inhibition at 10 µM (NCI-H322M): 9.6%
inhibition at 10 µM (NCI-H460): 68.2%
inhibition at 10 µM (NCI-H522): 92%
inhibition at 10 µM (COLO 205): 11.7%
inhibition at 10 µM (HCC-2998): 11.7%
inhibition at 10 µM (HCT-116): 77.2%
inhibition at 10 µM (HCT-15): 63.6%
inhibition at 10 µM (HT-29): 36%
inhibition at 10 µM (KM12): 69%
inhibition at 10 µM (SW-620): 68.7%
inhibition at 10 µM (SF-268): 48.9%
inhibition at 10 µM (SF-295): 72.4%
inhibition at 10 µM (LOX IMVI): 60.3%
inhibition at 10 µM (MALME-3M): 60.3%
inhibition at 10 µM (M14): 62.2%
inhibition at 10 µM (MDA-MB-435): -129%
inhibition at 10 µM (SK-MEL-2): 35.9%
inhibition at 10 µM (SK-MEL-28): 45.9%
inhibition at 10 µM (SK-MEL-5): 18.2%
inhibition at 10 µM (UACC-62): 58.8%
inhibition at 10 µM (IGROV1): 48.2%
inhibition at 10 µM (OVCAR-3): 86.3%
inhibition at 10 µM (OVCAR-4): 46.3%
inhibition at 10 µM (OVCAR-8): 38.7%
inhibition at 10 µM (NCI/ADR-RES): 84.4%
inhibition at 10 µM (SK-OV-3): 49.3%
inhibition at 10 µM (ACHN): 62.5%
inhibition at 10 µM (CAKI-1): 78.7%
inhibition at 10 µM (RXF 393): 90.3%
inhibition at 10 µM (SN12C): 26.3%
inhibition at 10 µM (TK-10): 1.9%
inhibition at 10 µM (UO-31): 66%
inhibition at 10 µM [1]: 52.5%

COc1ccc(C2NC(=O)C(C#N)c3c2sc2c(F)cccc32)cc1 (stereo not shown) [Compound 5b, 4-Cyano-8-fluoro-1-(4-methoxyphenyl)-1,2-dihydro[1]benzothieno[2,3-c] pyridin-3(4H)-one]
inhibition at 10 µM (CCRF-CEM): 66%
inhibition at 10 µM (HL-60(TB)): 89.5%
inhibition at 10 µM (K-562): 86%
inhibition at 10 µM (MOLT-4): 50.9%
inhibition at 10 µM (SR): 77.9%
inhibition at 10 µM (A549/ATCC): 58.5%
inhibition at 10 µM (EKVX): 38.3%
inhibition at 10 µM (HOP-62): 54.6%
inhibition at 10 µM (HOP-92): 45.9%
inhibition at 10 µM (NCI-H226): 39.8%
inhibition at 10 µM (NCI-H23): 24.8%
inhibition at 10 µM (NCI-H322M): 34.8%
inhibition at 10 µM (NCI-H460): 71.4%
inhibition at 10 µM (NCI-H522): 79.9%
inhibition at 10 µM (COLO 205): 8.44%
inhibition at 10 µM (HCC-2998): 8.46%
inhibition at 10 µM (HCT-116): 62.5%
inhibition at 10 µM (HCT-15): 66.5%
inhibition at 10 µM (HT-29): 49.5%
inhibition at 10 µM (KM12): 60%
inhibition at 10 µM (SW-620): 75.7%
inhibition at 10 µM (SF-268): 39%
inhibition at 10 µM (SF-295): 69.5%
inhibition at 10 µM (LOX IMVI): 54.4%
inhibition at 10 µM (MALME-3M): 52.9%
inhibition at 10 µM (M14): 66.7%
inhibition at 10 µM (MDA-MB-435): 109%
inhibition at 10 µM (SK-MEL-2): 40%
inhibition at 10 µM (SK-MEL-28): 47.4%
inhibition at 10 µM (SK-MEL-5): 39.5%
inhibition at 10 µM (UACC-62): 64.7%
inhibition at 10 µM (IGROV1): 58.9%
inhibition at 10 µM (OVCAR-3): 99.4%
inhibition at 10 µM (OVCAR-4): 28.4%
inhibition at 10 µM (OVCAR-8): 30.2%
inhibition at 10 µM (NCI/ADR-RES): 70.7%
inhibition at 10 µM (SK-OV-3): 36.9%
inhibition at 10 µM (ACHN): 55.5%
inhibition at 10 µM (CAKI-1): 60%
inhibition at 10 µM (RXF 393): 44.1%
inhibition at 10 µM (SN12C): 38.6%
inhibition at 10 µM (TK-10): -12.7%
inhibition at 10 µM (UO-31): 64.2%
inhibition at 10 µM [1]: 52.5%
